Assay results as given in ChEMBL document CHEMBL1131663, “Terphenyl cyclooxygenase-2 (COX-2) inhibitors: optimization of the central ring and o-biphenyl analogs” (Bioorg Med Chem Lett, 1999).

Assays:
[1] = biological target: T1, Prostaglandin G/H synthase 1 (Ovis aries, UniProt P05979); experiment: In vitro inhibitory concentration against ovine COX-1
T1 sequence (P05979 whole entry): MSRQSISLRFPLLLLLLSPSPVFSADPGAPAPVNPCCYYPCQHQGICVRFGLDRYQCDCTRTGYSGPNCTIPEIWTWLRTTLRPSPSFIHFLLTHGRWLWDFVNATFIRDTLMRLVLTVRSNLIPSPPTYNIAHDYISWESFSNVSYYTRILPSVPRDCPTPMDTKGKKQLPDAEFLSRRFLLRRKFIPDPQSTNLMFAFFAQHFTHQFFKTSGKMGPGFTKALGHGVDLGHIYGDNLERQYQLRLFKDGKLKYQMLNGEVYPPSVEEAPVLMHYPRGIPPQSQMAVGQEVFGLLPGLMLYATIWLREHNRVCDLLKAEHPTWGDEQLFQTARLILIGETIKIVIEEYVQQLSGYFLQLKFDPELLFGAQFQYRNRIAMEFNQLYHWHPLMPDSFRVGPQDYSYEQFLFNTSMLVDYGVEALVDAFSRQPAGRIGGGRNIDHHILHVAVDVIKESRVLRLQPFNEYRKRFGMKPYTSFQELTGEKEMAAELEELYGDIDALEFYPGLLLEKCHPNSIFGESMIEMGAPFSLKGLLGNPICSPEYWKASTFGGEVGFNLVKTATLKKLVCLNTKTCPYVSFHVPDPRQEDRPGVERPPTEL

[2] = biological target: T2, Prostaglandin G/H synthase 2 (Homo sapiens, UniProt P35354); experiment: In vitro inhibitory concentration against recombinant human Prostaglandin G/H synthase 2 obtained from baculovirus
T2 sequence (P35354 whole entry): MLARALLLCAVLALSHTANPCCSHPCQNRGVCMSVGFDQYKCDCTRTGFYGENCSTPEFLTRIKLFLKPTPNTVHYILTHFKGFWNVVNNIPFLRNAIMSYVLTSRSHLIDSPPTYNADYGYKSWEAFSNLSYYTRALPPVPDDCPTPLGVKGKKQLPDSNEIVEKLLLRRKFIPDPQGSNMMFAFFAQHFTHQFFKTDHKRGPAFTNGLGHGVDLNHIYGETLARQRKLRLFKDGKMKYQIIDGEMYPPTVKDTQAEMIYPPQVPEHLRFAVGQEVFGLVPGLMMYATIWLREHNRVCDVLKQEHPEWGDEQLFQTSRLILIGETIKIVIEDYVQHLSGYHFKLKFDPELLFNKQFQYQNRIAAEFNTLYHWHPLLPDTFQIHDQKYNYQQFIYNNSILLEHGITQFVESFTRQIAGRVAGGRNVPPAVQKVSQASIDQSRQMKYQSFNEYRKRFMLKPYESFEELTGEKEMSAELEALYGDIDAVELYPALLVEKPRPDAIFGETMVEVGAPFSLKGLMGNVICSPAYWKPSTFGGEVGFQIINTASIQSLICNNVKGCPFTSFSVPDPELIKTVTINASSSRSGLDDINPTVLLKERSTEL

With `CN1CC=C(c2ccccc2-c2ccc(S(C)(=O)=O)cc2)CC1` the IC50 [1] was greater than 300 µM and the IC50 [2] was greater than 300 µM.
`CS(=O)(=O)c1ccc(-c2nccnc2-c2ccccc2)cc1` gave an IC50 [1] greater than 300 µM and an IC50 [2] greater than 300 µM.
`CS(=O)(=O)c1ccc(-c2ccccc2-c2ccccn2)cc1` gave an IC50 [1] greater than 300 µM and an IC50 [2] greater than 300 µM.
In the case of `CS(=O)(=O)c1ccc(-c2ccc([N+](=O)[O-])cc2-c2ccccc2)cc1`, the IC50 [1] is reported as greater than 100 µM and the IC50 [2] is reported as 44 µM.
`CS(=O)(=O)c1ccc(-c2ccccc2N2CCCCC2)cc1` was tested, and the IC50 [1] was 43 µM and the IC50 [2] was 14 µM.
`CS(=O)(=O)c1ccc(-c2cccnc2-c2ccccc2)cc1` was tested, and the IC50 [1] was greater than 1000 µM.
For `COC(=O)c1ccc(-c2ccccc2)c(-c2ccc(S(C)(=O)=O)cc2)c1`, the IC50 [1] was greater than 300 µM and the IC50 [2] was 48 µM.
With `COc1ccc2cc(-c3ccccc3-c3ccc(S(C)(=O)=O)cc3)ccc2c1` the IC50 [1] was greater than 1000 µM and the IC50 [2] was 30 µM.
Work on `CS(=O)(=O)c1ccc(-c2ccccc2Oc2ccccc2)cc1` yielded an IC50 [1] greater than 1000 µM and an IC50 [2] of 33 µM.
Molecule `CS(=O)(=O)c1ccc(-c2cc([N+](=O)[O-])ccc2-c2ccccc2)cc1` has an IC50 [1] greater than 300 µM and an IC50 [2] of 38 µM.
In the case of `CS(=O)(=O)c1ccc(-c2ncccc2-c2ccccc2)cc1`, the IC50 [1] is reported as greater than 300 µM and the IC50 [2] is reported as greater than 300 µM.
With `CS(=O)(=O)c1ccc(-c2ccccc2Cc2ccccc2)cc1` the IC50 [1] was greater than 300 µM and the IC50 [2] was greater than 300 µM.
Work on `CS(=O)(=O)c1ccc(-c2cc3ccccc3cc2-c2ccccc2)cc1` yielded an IC50 [1] greater than 300 µM and an IC50 [2] of 41 µM.
`CS(=O)(=O)c1ccc(-c2cc(C(=O)O)ccc2-c2ccccc2)cc1` showed an IC50 [1] of 232 µM and an IC50 [2] greater than 300 µM.
Work on `CS(=O)(=O)c1ccc(-c2ccccc2C2CCCCC2)cc1` yielded an IC50 [1] greater than 1000 µM and an IC50 [2] of 31 µM.
`CS(=O)(=O)c1ccc(-c2cc(N)ccc2-c2ccccc2)cc1` showed an IC50 [1] of 35 µM and an IC50 [2] of 194 µM.
Work on `CS(=O)(=O)c1ccc(-c2ccccc2-c2ccncc2)cc1` yielded an IC50 [1] greater than 300 µM and an IC50 [2] greater than 300 µM.
With `CS(=O)(=O)c1ccc(-c2ccccc2-c2ccccc2)cc1` the IC50 [1] was greater than 1000 µM.
`CS(=O)(=O)c1ccc(-c2ccccc2-c2ccc3ccccc3n2)cc1` was tested, and the IC50 [1] was greater than 1000 µM and the IC50 [2] was 57 µM.
`CS(=O)(=O)c1ccc(-c2ccc(N)cc2-c2ccccc2)cc1` was tested, and the IC50 [1] was 17 µM and the IC50 [2] was 254 µM.
For `CS(=O)(=O)c1ccc(-c2ccccc2C2=CCCCC2)cc1`, the IC50 [1] was greater than 1000 µM and the IC50 [2] was 33 µM.
In the case of `CS(=O)(=O)c1ccc(-c2cc(O)ccc2-c2ccccc2)cc1`, the IC50 [1] is reported as 404 µM and the IC50 [2] is reported as 147 µM.
`CS(=O)(=O)c1ccc(-c2ccccc2-c2cncnc2)cc1` was tested, and the IC50 [1] was greater than 300 µM and the IC50 [2] was greater than 300 µM.
`CS(=O)(=O)c1ccc(-c2ccccc2-c2cccnc2)cc1` showed an IC50 [1] greater than 300 µM and an IC50 [2] of 87 µM.
